# From US9220714B2, “Nitrofuran compounds for the treatment of cancer and angiogenesis” (WOMEN AND INFANTS HOSPITAL OF RHODE ISLAND, priority 2006, dated 2015)
# Read-outs that look alike come from different tables or passages of the source.
# How the values were obtained:
# SMS-KCNR cells [1] = assay: cells; conditions: Homo sapiens
# Protocol: (§1) Cell viability was assessed using the MTS assay as described in Materials and Methods and expressed as percent of vehicle treated control. The data represents the mean SSD of four replicates.
# SMS-KCNR cells were pretreated with pancaspase inhibitor, Z-VAD-FMK. […] Cell viability was measured by MTS assay. The reversal of cytotoxicity by pancaspase inhibitor was determined by comparing the viability of riifurtimox treated cells in the presence or absence of the pancaspase inhibitor. The values are the Mean±SD of quadruplicates.
# (§2) The human neuroblastoma cell lines IMR-32 (ATCC), SMS-KCN, SMS-KCNR (from John Maris, CHOP, Philadelphia, Pa.) were maintained in RPMI 1640 media supplemented with 10% fetal bovine serum, 100 units/ml penicillin and 100 μg/ml streptomycin at 37° C. in a humidified incubator. Cells were grown in 6 well plates or 100 mm dishes to 75% confluency and serum deprived (RPMI 1640 with 0.1% BSA) overnight before treatment.
# (§3) Cell viability was measured using the CellTiter 96 AQ One Solution Cell Proliferation Assay kit (Promega, Madison Wis.)^4. […] Vehicle treated cells were used as control (0.001% DMSO). At the end of the incubation period, MTS reagent (3-(4,5-dimethylthiazol-2-yl)-5-(3-carboxymethoxyphenyl)-2-(4-sulfophenyl)-2H-tetrazolium)^12 was added to each well in fresh media to a final concentration of 0.5 mg/ml and incubated for 4 hours. Absorbance was measured at 490 nm using a microplate reader (Multiskan RC, Fisher Scientific Pittsburgh, Pa.). Cell viability is represented as the mean percentage+/−SD of absorbance before and after treatment.
# Inactivation of caspases results in inhibition of caspase mediated apoptosis. […] The cell viability was measured by MTS assay.
# IMR-32 cells = assay: cells; conditions: Homo sapiens
# Protocol: as §1, §2, §3
# SMS-KCN cells = assay: cells; conditions: Homo sapiens
# Protocol: as §1, §2, §3
# SMS-KCNR cells [2] = assay: cells; conditions: Homo sapiens, read-out: concentration giving 50% inhibition in DNA synthesis (BrdU incorporation)
# Protocol: (§4) Cells were labeled with 10 μM BrdU for 6 hours. The cells were fixed and the color was developed using peroxidase conjugated anti-BrdU antibody and TMB (3,3′,5,5′-tetramethylbenzidine) chromogenic substrate. Absorbance was measured at 450 nm using a microplate reader (Multiskan RC, Fisher Scientific, Pittsburgh, Pa.). In this assay, the color intensity correlates directly to the amount of BrdU incorporation which in turn reflects proliferation.
# [3] = test system: Human Endothelial Cells (HEC); assay: cells; conditions: Endothelial cell, read-out: inhibition of DNA synthesis in HEC
# Protocol: as §4
# Human Endothelial Cells (HEC) (1×10^4 cells) were cultured in 96 well plates, serum deprived for 16 hours and treated with […], 1.25, 2.5, 5, 10 and 20 μg/ml in Medium 200 in the presence or absence of 50 ng/ml VEGF for 72 hours. BrdU (10 μM final concentration) was added to the cells and re-incubated for further 6 hours. The cells were fixed and the color was developed using anti-BrdU-POD antibody and TMB chromogenic substrate. The assay was performed according to the manufacturer's instructions. In this colorimetric cell proliferation assay, the color intensity correlates directly to the amount of BrdU incorporated into the DNA which in turn represents proliferation. The results are expressed as percentage BrdU incorporation.
# Akt = conditions: SMS-KCNR
# Protocol: as §2
# caspase-3 = conditions: 1, 10 and 20 μg/ml, 24 hours
# Protocol: as §2
# SMS-KCNR cells [4] = conditions: 96 hours
# Protocol: Vehicle treated cells were used as control.
# Vehicle treated cells were used as control. […] The cells were washed with PBS, fixed with paraformaldehyde, permeabilized with Triton X-100 at room temperature, labeled with fluorescein-12-dUTP using terminal deoxynucleotidyl transferase and counterstained with propidium iodide (5 μg/ml). Negative controls (without terminal transferase) were included in each experiment. Apoptosis was detected by fluorescence microscopy (Nikon Eclipse TE2000-E fitted with a cooled CCD camera, Japan). Propidium iodide staining was used to detect both non-apoptotic and apoptotic cells and fluorescein staining was used to detect the apoptotic cells.
# rat aortic rings = conditions: with growth factors, day 9
# Text: (A) Vehicle treated aorta without growth factor (B) Vehicle treated aorta with growth factor.
# Matrigel bed mimics physiological extracellular matrix representing its natural composition and architecture. Due to these features, Matrigel enables several cell types, including endo-thelial cells, to maintain in culture their in vivo phenotype and 3-dimensional organization. Aortic arches were removed from euthanized rats and immediately transferred to a culture dish containing ice-cold serum-free media. The peri-aortic fibroadipose tissue was carefully removed with fine microdissection forceps and iridectomy scissors paying special attention not to damage the aortic wall. Aortic rings (1 mm thick) were sectioned and extensively rinsed in 5 consecutive washes of Medium 200. […] The explants were examined every second day with a Nikon Eclipse TS100 inverted microscope at an appropriate magnification and photographed at the end of 9th day. On the ninth day, the capillary sprouting were quantified by grading and recording the extent of sprouting directly reflecting angiogenesis using Nikon Eclipse TS100 fluorescent microscope (Japan) and Fuji digital camera.
# neuroblastoma = conditions: for tumor marker VMA: initial VMA 22
# Text: Chagas disease is a parasitic disease caused by Trypanasoma cruzi endemic to South America.
# ERK1/2 = conditions: SMS-KCNR, data not shown
# SMS-KCNR cells [5] = conditions: 0-20 μg/ml, after 72 hours of treatment
# SMS-KCNR cells [6] = conditions: 150 mg/kg/day in food pellets, 30 days, nude mice
# sympathetic neurons = conditions: not seen in parasympathetic neurons or non-neuronal cells
# HEC = assay: cells; conditions: Homo sapiens, 8 h, read-out: inhibition of tube formation
# Protocol: Stimulation with growth factors leads to morphological differentiation of endothelial cells and formation of tube like structures on matrices. The endothelial tube formation assay was performed in Matrigel bed. Briefly, Matrigel bed was prepared by using pre-cooled pipettes, plates and tubes on ice. Growth factor-reduced Matrigel was thawed overnight at 4° C. and mixed to homogeneity, Culture plates (48-well) were coated with 0.1 ml of Matrigel and allowed to gelatinize at 37° C. for 30 minutes. […] Capillary networks were photographed using a phase-contrast microscope (Nikon Eclipse TS 100, fitted with Fuji digital camera, Japan), and the number of tubes was quantified by counting the branching points from four quadrants of each well.
# normal epithelial cells = normal epithelial cells in culture; cited from earlier work
# [7] = study of 67 children using nifurtimox for Chagas disease; cited from earlier work
# [8] = 120 h, read-out: cell viability
# [9] = read-out: IC50, concentration required to reach 50% inhibition of growth
structure (smiles),measurement,setting,value
CC1CS(=O)(=O)CCN1/N=C/c1ccc([N+](=O)[O-])o1 (stereo not drawn) [Nifurtimox],cytotoxicity at 10 µg/mL,"SMS-KCNR cells [1]; 96 h, read-out: decrease of cell viability compared to vehicle treated control",50%
same,viability at 20 µg/mL,SMS-KCNR cells [1]; [8],37%
same,IC50,SMS-KCNR cells [1]; [9],14.7 µg/mL
same,viability at 10 µg/mL,SMS-KCNR cells [1]; read-out: cell viability with Z-VAD-FMK pretreatment,90%
same,viability at 20 µg/mL,"IMR-32 cells; IMR-32, 120 h, read-out: cell viability",78%
same,IC50,"IMR-32 cells; IMR-32, read-out: IC50, concentration required to reach 50% inhibition of growth",52.9 µg/mL
same,viability at 20 µg/mL,SMS-KCN cells; [8],59%
same,IC50,SMS-KCN cells; [9],25.4 µg/mL
same,IC50,SMS-KCNR cells [2],18.1 µg/mL
same,inhibition at 5 µg/mL,[3],30%
same,inhibition at 10 µg/mL,[3],50%
same,inhibition at 20 µg/mL,[3],> 80%
same,serum stimulated Akt phosphorylation,"Akt; 1.0 and 10 μg/ml, in the presence of serum",completely inhibited
same,BDNF stimulated Akt phosphorylation,"Akt; 10 and 20 μg/ml, BDNF stimulation",significantly inhibited
same,total Akt protein levels,Akt; BDNF stimulation,not altered
same,activation of caspase-3 (19 and 17 kDa bands),caspase-3,dose dependent and strong activation
same,morphological alterations,SMS-KCNR cells [4]; 1 μg/ml,decrease in axon length was apparent
same,morphological alterations,SMS-KCNR cells [4]; 10 μg/ml,the decrease in axon length was more prominent and was associated with rounding of cells
same,morphological alterations,SMS-KCNR cells [4]; 20 μg/ml,rounded up and floating
same,micro-vascular sprouting of aortic rings,rat aortic rings; 20 μg/ml,complete inhibition of micro-vascular sprouting
same,capillary network of aortic rings,rat aortic rings; 1 and 10 μg/ml,sparse and incomplete
same,tumor response,"neuroblastoma; Patient A, after four months, with cyclophosphamide and topotecan",significant and continuous tumor regression
same,tumor response,"neuroblastoma; Patient A, after two weeks, Nifurtimox alone",tumor stabilization
same,tumor markers,"neuroblastoma; Patient B, after two months, with ascorbic acid, cyclophosphamide and topotecan",normalization of tumor markers
same,tumor marker VMA,"neuroblastoma; Patient C, Day 21, before ascorbic acid",17
same,bone marrow tumor status,"neuroblastoma; Patient C, Day 21, initially positive for tumor",negative
same,tumor marker VMA,"neuroblastoma; Patient C, after 3 cycles of treatment",13
same,tumor response,"neuroblastoma; patient with Chagas disease, 15-20 mg/kg/day oral, with cyclophosphamide and topotecan",tumor subsequently regressed
same,tumor response after relapse,"neuroblastoma; same patient restarted on nifurtimox, cyclophosphamide and topotecan",again demonstrated tumor regression
same,tumor response,"neuroblastoma; three patients with relapsed neuroblastoma, 20 mg/kg/day, alone or in combination",tumor regression
same,phosphorylation of ERK1/2,ERK1/2,not affected
same,apoptosis (TUNEL positive nuclei),SMS-KCNR cells [5],dose dependent increase in apoptosis
same,decrease in tumor size versus untreated,SMS-KCNR cells [6],greater than three fold decrease
same,tumor size,SMS-KCNR cells [6],0.3 grams
same,cytotoxicity after pretreatment with AMPT (tyrosine hydroxylase inhibitor),neuroblastoma cell lines,reduction of cytotoxicity
same,sensitivity of sympathetic neurons to nifurtimox,sympathetic neurons,enhanced sensitivity
same,inhibition at 20 µg/mL,HEC,50%
same,cytotoxic effects on normal epithelial cells,normal epithelial cells,not observed
same,tolerability in children versus adults,[7],much better tolerated in children
